Data as given in patent publication US20090325952A1, “PYRAZOLO[3,4-B]PYRIDINE COMPOUNDS, AND THEIR USE AS PDE4 INHIBITORS” (Glaxo Group Limited, priority 2006, published 2009).

Biological target: T1, PDE6 (from bovine retina) (Bos taurus, UniProt P11541+P23439)
T1 construct: PDE6 can be purified from bovine retina; from tissue; host or cells: bovine retina
T1 sequence (P11541 2-856 limits assumed): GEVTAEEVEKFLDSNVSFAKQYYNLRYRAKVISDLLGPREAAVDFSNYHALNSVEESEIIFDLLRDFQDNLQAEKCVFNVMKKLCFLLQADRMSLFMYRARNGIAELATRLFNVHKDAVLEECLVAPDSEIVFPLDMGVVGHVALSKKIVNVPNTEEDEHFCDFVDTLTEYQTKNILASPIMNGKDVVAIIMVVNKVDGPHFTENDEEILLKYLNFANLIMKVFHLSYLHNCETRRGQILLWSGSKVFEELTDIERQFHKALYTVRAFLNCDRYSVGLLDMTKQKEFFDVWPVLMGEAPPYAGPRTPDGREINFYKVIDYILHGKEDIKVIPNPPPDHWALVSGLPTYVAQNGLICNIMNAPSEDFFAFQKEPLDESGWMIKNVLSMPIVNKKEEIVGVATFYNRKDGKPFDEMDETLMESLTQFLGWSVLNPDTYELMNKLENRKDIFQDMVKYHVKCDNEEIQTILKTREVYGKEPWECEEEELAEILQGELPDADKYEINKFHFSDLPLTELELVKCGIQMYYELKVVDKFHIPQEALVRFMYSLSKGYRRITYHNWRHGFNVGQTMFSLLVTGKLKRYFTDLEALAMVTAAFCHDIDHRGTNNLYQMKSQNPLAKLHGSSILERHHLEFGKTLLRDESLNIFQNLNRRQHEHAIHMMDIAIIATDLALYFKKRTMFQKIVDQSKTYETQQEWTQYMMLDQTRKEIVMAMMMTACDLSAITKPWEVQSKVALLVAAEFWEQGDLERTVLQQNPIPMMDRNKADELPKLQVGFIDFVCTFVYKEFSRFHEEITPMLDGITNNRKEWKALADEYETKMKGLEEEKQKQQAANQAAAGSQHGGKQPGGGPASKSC
T1 sequence (P23439 2-850 limits assumed): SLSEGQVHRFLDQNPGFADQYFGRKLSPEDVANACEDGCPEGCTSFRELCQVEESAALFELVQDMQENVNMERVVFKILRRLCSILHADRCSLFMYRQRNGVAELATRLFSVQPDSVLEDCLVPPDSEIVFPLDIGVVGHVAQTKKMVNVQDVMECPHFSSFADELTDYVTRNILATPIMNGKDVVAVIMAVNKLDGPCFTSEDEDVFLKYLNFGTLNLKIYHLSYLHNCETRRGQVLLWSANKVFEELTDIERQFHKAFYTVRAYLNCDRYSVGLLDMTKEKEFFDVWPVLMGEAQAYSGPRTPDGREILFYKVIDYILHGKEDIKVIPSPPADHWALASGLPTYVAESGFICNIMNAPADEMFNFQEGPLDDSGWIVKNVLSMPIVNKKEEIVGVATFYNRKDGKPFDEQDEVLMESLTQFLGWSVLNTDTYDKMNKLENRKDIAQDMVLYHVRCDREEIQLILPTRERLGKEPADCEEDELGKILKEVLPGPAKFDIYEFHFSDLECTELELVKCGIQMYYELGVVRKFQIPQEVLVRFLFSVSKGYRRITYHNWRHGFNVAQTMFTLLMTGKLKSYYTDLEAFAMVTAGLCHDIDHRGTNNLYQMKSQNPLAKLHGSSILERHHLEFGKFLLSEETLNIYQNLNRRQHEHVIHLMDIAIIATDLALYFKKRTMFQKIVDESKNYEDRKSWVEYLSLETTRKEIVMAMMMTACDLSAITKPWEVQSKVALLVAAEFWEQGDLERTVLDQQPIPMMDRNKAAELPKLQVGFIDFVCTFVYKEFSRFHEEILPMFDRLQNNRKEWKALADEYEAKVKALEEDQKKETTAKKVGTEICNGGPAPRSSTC
Experiment: Inhibition of PDE6 activity (FP or SPA assays)
Format: biochemical
Details: selectivity PDE4B over PDE6
Source text: PDE6 can be purified from bovine retina as described by: P. Catty and P. Deterre, “Activation and solubilization of the retinal cGMP-specific phosphodiesterase by limited proteolysis”, Eur. J. Biochem., 1991, 199, 263-269; A. Tar et al. “Purification of bovine retinal cGMP phosphodiesterase”, Methods in Enzymology, 1994, 238, 3-12; and/or D. Srivastava et al. “Effects of magnesium on cyclic GMP hydrolysis by the bovine retinal rod cyclic GMP phosphodiesterase”, Biochem. J, 1995, 308, 653-658.
The ability of compounds to inhibit catalytic activity at PDE4B or 4D (human recombinant), PDE3 (from bovine aorta), PDE5 (human recombinant) or PDE6 (from bovine retina) can optionally be determined by Scintillation Proximity Assay (SPA) in a 96-well format.
Test compounds (as a solution in DMSO, suitably about 2 microlitre (ul) volume of DMSO solution) are preincubated at ambient temperature (room temperature, e.g. 19-23° C.) in Wallac Isoplates (code 1450-514) with PDE enzyme in 50 mM Tris-HCl buffer pH 7.5, 8.3 mM MgCl2, 1.7 mM EGTA, 0.05% (w/v) bovine serum albumin for 10-30 minutes (usually 30 minutes). The enzyme concentration is adjusted so that no more than 20% hydrolysis of the substrate defined below occurs in control wells without compound, during the incubation. […] Bound radioactive product is measured using a WALLAC TRILUX 1450 Microbeta scintillation counter. […]

CCc1nc2c(cnn2CC)c(NC2CCOCC2)c1CNC(=O)c1ccc(NC(=O)CCCCCCCN(C)CCO)cc1 [Example 1B, N-{[1,6-diethyl-4-(tetrahydro-2H-pyran-4-ylamino)-1H-pyrazolo[3,4-b]pyridin-5-yl]methyl}-4-({8-[(2-hydroxyethyl)(methyl)amino]octanoyl}amino)benzamide]
PDE4B inhibition compared with PDE6 inhibition (pIC50 values): inhibit PDE4B more strongly than they inhibit PDE3, PDE5 and PDE6
